Test results reported in patent US20220098203A1 (priority 2018, published 2022).
Like-named read-outs stand apart in the source and are kept apart here.

How the values were obtained:
[1] = test system: HCT116 MTAP-/-; assay: Inhibition of cellular proliferation (Cell Titer Glo), HCT116 MTAP-/-; assay type: cell-based, human; conditions: 4 days, read-out: 4 Day Relative Growth Inhibition (MTAP −/−)
Protocol: (§1) Test compound impact on cancer cell growth was assessed by treating cancer cells with compound for 4 days and then measuring proliferation using an ATP-based cell proliferation readout (Cell Titer Glo, Promega Corporation).
(§2) In a typical assay an isogenic pair of HCT116 human colon carcinoma cell lines which vary only in MTAP deletion status (HCT116 MTAP+/+ and HCT116 MTAP−/−) were plated in 96-well dishes at appropriate cell density. Following 24 hours, cells were then treated with the candidate MAT2A inhibitor. […] Compound was then transferred to a working stock plate in cell culture media by adding 5 μL of compound in DMSO to 495 μL of cell culture media. This working stock was then added to cells via a further 5-fold dilution, by adding 25 μL of working stock to 100 μL of cells in culture media. Following compound addition, cells were incubated at 37° C./5% CO2 for 4 days.
(§3) The plate was then covered with aluminum foil and shaken for 15 minutes to ensure complete mixing and full cell lysis. […] This luminescence measure was converted to a proliferation index by subtracting from each data point the ATP luminescence signal measured from a bank (no cells) well and dividing by the ATP luminescence signal measured in 0.2% DMSO control well adjusted for signal in blank well.

[2] = target: T1, MAT2A homodimer (Homo sapiens, UniProt P31153); assay: MAT2A biochemical assay (liberated phosphate, PiColorLock Gold); conditions: Table 5a; MAT2A biochemical assay; read-out: Enzyme Inhibition
T1 construct: inferred from the Ni sepharose purification and imidazole elution; made in house; host or cells: SF9 insect cells, recombinant baculovirus (Bac to Bac, pFASTBAC1)
In short: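 Baculovirus/Sf9-expressed, Ni-purified MAT2A homodimer preincubated with compound 60 min at 25 °C, then reacted 60 min at 25 °C with substrate mix of 500 μM ATP and 400 μM L-methionine, pH 7.0 (mix, not final levels). Phosphate released with SAM measured by PiColorLock Gold against phosphate standard curve.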

[3] = test system: SAM in HCT116 MTAP-deleted cells; assay: Cellular assay of target engagement (SAM), LC-MS/MS; assay type: cell-based, human; conditions: 72 h, read-out: Cell 72 h SAM Inhibition (MTAP −/−)
Protocol: Measurement of MAT2A activity in cells was made by direct quantitation of the abundance of the product of its enzymatic activity, SAM. Cancer cells were treated with candidate MAT2A inhibitors for a suitable incubation period, and the cells were then lysed using a reagent which quenched any further enzyme activity. Soluble metabolites including SAM were collected and SAM itself was directly measured from the lysate using quantitative LC-MS/MS.
A typical assay was performed using an HCT116 human colon carcinoma cell line which was genetically engineered to delete the MTAP gene (commercially available from Horizon Discovery). […] Cells were plated in 96-well dishes at appropriate cell density. Following 24 hours, cells were then treated with the candidate MAT2A inhibitor. […] Compound was then transferred to a working stock plate in cell culture media by adding 5 μL of compound in DMSO to 495 μL of cell culture media. This working stock was then added to cells via a further 5-fold dilution, by adding 25 μL of working stock to 100 μL of cells in culture media. Following compound addition, cells were incubated at 37° C./5% CO2 for 72 hrs.
To quantitate SAM levels following compound treatment, cells were gently washed once in ammonium carbonate buffer (75 mM at pH 7.4), placed on dry ice, and lysed with metabolite extraction buffer (80% cold methanol and 20% water (v/v) with acetic acid at 1M final concentration with 200 ng/mL deuterated d3-SAM as internal control). Following centrifugation at 4° C. at 3,200 rpm for 30 minutes, the supernatant was collected and stored at −80° C. until analysis by Liquid Chromatography with tandem Mass Spectrometry (LC-MS/MS). LC-MS/MS analysis was performed using an API6500 Mass Spectrometer (Sciex, Framingham, Mass., USA) operating in positive ion spray mode and equipped with a Waters UPLC Acquity (Waters, Milford, Mass., USA) BEH Amide column.

[4] = test system: HCT116 MTAP+/+; assay: Inhibition of cellular proliferation (Cell Titer Glo), HCT116 MTAP+/+; assay type: cell-based; conditions: Homo sapiens, HCT-116, 96 h, Table 5a, 4 days, read-out: 4 Day Relative Growth Inhibition (MTAP +/+)
Protocol: as §1, §2, §3

[5] = Homo sapiens, HCT-116, 96 h, Table 5a
[6] = Homo sapiens, HCT-116, Table 5a
[7] = Table 6, select pairs of compounds

T1 sequence (P31153 whole entry): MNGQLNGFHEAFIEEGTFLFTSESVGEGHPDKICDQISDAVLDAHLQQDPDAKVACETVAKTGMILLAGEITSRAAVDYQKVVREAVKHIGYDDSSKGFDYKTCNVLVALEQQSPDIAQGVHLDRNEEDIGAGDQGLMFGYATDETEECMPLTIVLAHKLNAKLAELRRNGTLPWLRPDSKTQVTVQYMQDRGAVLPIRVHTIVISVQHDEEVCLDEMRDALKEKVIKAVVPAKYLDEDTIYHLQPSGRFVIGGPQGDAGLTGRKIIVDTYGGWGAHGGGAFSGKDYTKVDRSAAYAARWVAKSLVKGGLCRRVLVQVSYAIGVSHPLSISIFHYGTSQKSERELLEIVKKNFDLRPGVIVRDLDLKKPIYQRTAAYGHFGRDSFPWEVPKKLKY

IC50 [1, 5] | IC50 [2] | IC50 [3, 6] | IC50 [4] | IC50 [1, 7] | IC50 [3, 7] | SMILES
100 to 1000 nM | < 100 nM | 100 to 1000 nM | > 1000 nM |  |  | Cn1cc2cc(N3Cc4cnc(NCC(F)(F)F)nc4N(c4ccc(-c5nc[nH]n5)cc4)C3=O)ccc2n1 [Example 220, 1-(4-(1H-1,2,4-triazol-3-yl)phenyl)-3-(2-methyl-2H-indazol-5-yl)-7-((2,2,2-trifluoroethyl)amino)-3,4-dihydropyrimido[4,5-d]pyrimidin-2(1H)-one]
100 to 1000 nM | < 100 nM | 100 to 1000 nM | > 1000 nM |  |  | Cn1cnc2ccc(N3Cc4ccc(OCC(F)(F)F)nc4N(c4ccc(OC(F)F)cc4)C3=O)cc21 [Example 273]
100 to 1000 nM | < 100 nM | < 100 nM | > 1000 nM |  |  | Cc1nc2ccc(N3Cc4cnc(NCC(F)(F)F)nc4N(c4ccc(OC(F)F)cc4)C3=O)cc2n1C [Example 424]
< 100 nM | < 100 nM | < 100 nM | > 1000 nM |  |  | [2H]C([2H])([2H])Oc1ccc(N2C(=O)N(c3ccc4nn(C)cc4c3)Cc3c(N)nc(NCC(F)(F)F)nc32)cc1 [Example 430, 5-amino-1-(4-(methoxy-d3)phenyl)-3-(2-methyl-2H-indazol-5-yl)-7-((2,2,2-trifluoroethyl)amino)-3,4-dihydropyrimido[4,5-d]pyrimidin-2(1H)-one]
100 to 1000 nM | < 100 nM | 100 to 1000 nM | > 1000 nM |  |  | COc1ccc(N2Cc3ncc(NCC(F)(F)F)nc3N(c3ccc(Cl)cc3)C2=O)cc1 [Example 416, 1-(4-chlorophenyl)-3-(4-methoxyphenyl)-7-((2,2,2-trifluoroethyl)amino)-3,4-dihydropteridin-2(1H)-one]
100 to 1000 nM | < 100 nM | < 100 nM | > 1000 nM |  |  | CCOc1ccc2c(n1)N(c1ccc(OC(F)F)cc1)C(=O)N(c1ccc3ncn(C)c3c1)C2 [Example 272]
> 1000 nM | < 100 nM | 100 to 1000 nM | > 1000 nM |  |  | Cn1cc2cc(N3Cc4cnc(NCC(F)(F)F)cc4N(c4ccc(OC(F)F)cc4)C3=O)ccc2n1 [Example 268]
> 1000 nM | 100 to 1000 nM | 100 to 1000 nM | > 1000 nM |  |  | CCOc1cnc2c(c1)N(c1ccc(Cl)cc1)C(=O)N(c1ccc3nn(C)cc3c1)C2 [Example 291]
100 to 1000 nM | < 100 nM | < 100 nM | > 1000 nM |  |  | Cn1cc2cc(N3Cc4ccc(OCC(F)F)nc4N(c4ccc(O)cc4)C3=O)ccc2n1 [Example 295, 7-(2,2-difluoroethoxy)-1-(4-hydroxyphenyl)-3-(2-methyl-2H-indazol-5-yl)-3,4-dihydropyrido[2,3-d]pyrimidin-2(1H)-one]
> 1000 nM | 100 to 1000 nM | 100 to 1000 nM | > 1000 nM |  |  | COc1ccc(N2Cc3cnc(NCC(F)(F)F)nc3N(c3ccc(OC)nc3)C2=O)cc1 [Example 261]
100 to 1000 nM | < 100 nM | < 100 nM | > 1000 nM |  |  | Cn1cc2cc(N3Cc4ccc(OCC(F)(F)F)nc4N(c4ccc(OC(F)F)cc4)C3=O)ccc2n1 [Example 270]
> 1000 nM | 100 to 1000 nM | > 1000 nM | > 1000 nM |  |  | COc1ccc(N2Cc3ccc(NCC(F)(F)F)nc3N(c3ccc(Cl)cc3)C2=O)cc1 [Example 407, 1-(4-chlorophenyl)-3-(4-methoxyphenyl)-7-((2,2,2-trifluoroethyl)amino)-3,4-dihydropyrido[2,3-d]pyrimidin-2(1H)-one]

The remaining lines, values behind:

SMILES | IC50 [1, 5] | IC50 [2] | IC50 [3, 6] | IC50 [4] | IC50 [1, 7] | IC50 [3, 7]
COc1ccc(N2C(=O)N(c3ccc4nn(C)cc4c3)Cc3ncc(OCC(F)F)nc32)cc1 [Example 180, 7-(2,2-difluoroethoxy)-1-(4-methoxyphenyl)-3-(2-methyl-2H-indazol-5-yl)-3,4-dihydropteridin-2(1H)-one] | < 100 nM | < 100 nM | < 100 nM | 100 to 1000 nM |  | 
CCOc1ccc2c(n1)N(c1ccc(OC)nc1)C(=O)N(c1ccc3nn(C)cc3c1)C2 [Example 142, 7-ethoxy-1-(6-methoxypyridin-3-yl)-3-(2-methyl-2H-indazol-5-yl)-3,4-dihydropyrido[2,3-d]pyrimidin-2(1H)-one] | 100 to 1000 nM | < 100 nM | < 100 nM | > 1000 nM |  | 
[2H]C([2H])([2H])Oc1ccc(N2C(=O)N(c3ccc4nn(C)cc4c3)Cc3ccc(OCCC)nc32)cc1 [Example 165, 1-(4-methoxy-d3-phenyl)-3-(2-methyl-2H-indazol-5-yl)-7-propoxy-3,4-dihydropyrido[2,3-d]pyrimidin-2(1H)-one] | 100 to 1000 nM | < 100 nM | 100 to 1000 nM | > 1000 nM |  | 
[2H]C([2H])([2H])Oc1ccc(N2C(=O)N(c3ccc4nn(CCOC)cc4c3)Cc3ccc(OCC(F)F)nc32)cc1 [Example 125, 7-(2,2-difluoroethoxy)-3-(2-(2-methoxyethyl)-2H-indazol-5-yl)-1-(4-methoxy-d3-phenyl)-3,4-dihydropyrido[2,3-d]pyrimidin-2(1H)-one] | < 100 nM | < 100 nM | < 100 nM | > 1000 nM |  | 
Cn1cc2cc(N3Cc4cnc(NCC(F)(F)F)nc4N(c4ccc(OC(F)F)cc4)C3=O)ccc2n1 [Example 216, 1-(4-(difluoromethoxy)phenyl)-3-(2-methyl-2H-indazol-5-yl)-7-((2,2,2-trifluoroethyl)amino)-3,4-dihydropyrimido[4,5-d]pyrimidin-2(1H)-one] | < 100 nM | < 100 nM | < 100 nM | > 1000 nM | < 100 nM | < 100 nM
[2H]C([2H])([2H])Oc1ccc(N2C(=O)N(c3ccc4ncn(C)c4c3)Cc3ccc(OCC(F)F)nc32)cc1 [Example 135, 7-(2,2-difluoroethoxy)-1-(4-(methoxy-d3)phenyl)-3-(1-methyl-1H-benzo[d]imidazol-6-yl)-3,4-dihydropyrido[2,3-d]pyrimidin-2(1H)-one] | < 100 nM | < 100 nM | < 100 nM | > 1000 nM |  | 
[2H]C([2H])([2H])Oc1ccc(N2C(=O)N(c3ccc4nn(C)cc4c3)Cc3ccc(OCC)nc32)cc1 [Example 137, 7-ethoxy-1-(4-(methoxy-d3)phenyl)-3-(2-methyl-2H-indazol-5-yl)-3,4-dihydropyrido[2,3-d]pyrimidin-2(1H)-one] | < 100 nM | < 100 nM | < 100 nM | > 1000 nM |  | 
Cn1cc2cc(N3Cc4ccc(OCC(F)F)nc4N(c4ccc5scnc5c4)C3=O)ccc2n1 [Example 170, 1-(benzo[d]thiazol-5-yl)-7-(2,2-difluoroethoxy)-3-(2-methyl-2H-indazol-5-yl)-3,4-dihydropyrido[2,3-d]pyrimidin-2(1H)-one] | < 100 nM | < 100 nM | < 100 nM | 100 to 1000 nM |  | 
Cn1cc2cc(N3Cc4ccc(OCC(F)F)nc4N(c4ccc(Br)cc4)C3=O)ccc2n1 [Example 133, 1-(4-bromophenyl)-7-(2,2-difluoroethoxy)-3-(2-methyl-2H-indazol-5-yl)-3,4-dihydropyrido[2,3-d]pyrimidin-2(1H)-one] | < 100 nM | < 100 nM | < 100 nM | > 1000 nM |  | 
